Measured values reported in ChEMBL document CHEMBL5505960, “Synthesis and evaluation of butylphthalide-scutellarein hybrids as multifunctional agents for the treatment of Alzheimer's disease” (Eur J Med Chem, 2024).
The source made the active and inactive calls. The calls are words filed in the database; no cut-off is given here.

Tests used:
[1] = Antioxidant activity assessed as trolox equivalent of ORAC radical scavenging activity by ORAC-FL assay relative to trolox; format: functional
[2] = target: Amyloid-beta precursor protein (Homo sapiens) (UniProt P05067); assay: Inhibition of amyloid beta (1 to 42) (unknown origin) self induced aggregation at 25 uM by ThT fluorescence assay relative to control
[3] = target: Amyloid-beta precursor protein (Homo sapiens) (UniProt P05067); assay: Disaggregation of self-induced amyloid beta (1 to 42) (unknown origin) fibrils at 25 uM by ThT fluorescence assay relative to control
[4] = Antioxidant activity assessed as inhibition of Cu2+-induced ROS production by measuring decrease in fluorescence intensity in presence of Cu2+ and ascorbate; format: functional
HT-22 [5] = assay: Neuroprotective activity against amyloid beta (1 to 42) induced cell injury in mouse HT-22 cells assessed as cell viability at 50 uM incubated for 24 hrs by MTT assay; format: functional, cell-based
HT-22 [6] = assay: Neuroprotective activity against amyloid beta (1 to 42)-induced injury in mouse HT-22 cells assessed as reversal of reduced cell synapse length at 2.5 to 10 uM measured after 24 hrs […]; format: functional, cell-based; settings: dose 2.5-10 µM
HT-22 [7] = assay: Neuroprotective activity against amyloid beta (1 to 42)-induced injury in mouse HT-22 cells assessed as increase in cell viability at 10 uM incubated for 24 hrs by MTT assay relative to control; format: functional
HT-22 [8] = assay: Neuroprotective activity against amyloid beta (1 to 42)-induced injury in mouse HT-22 cells assessed as increase in cell viability at 2.5 uM incubated for 24 hrs by MTT assay relative to control; format: functional
HT-22 [9] = assay: Neuroprotective activity against amyloid beta (1 to 42)-induced injury in mouse HT-22 cells assessed as inhibition of ROS accumulation measured after 24 hrs by DCFH-DA staining based fluorescence microscopy analysis; format: functional, cell-based; settings: dose 2.5-10 µM
PC-12 = assay: Neuroprotective activity against H2O2 induced rat PC12 cells assessed as increase in cell viability at 10 uM measured after 24 hrs by MTT assay relative to control; format: functional
BV-2 [10] = assay: Cytotoxicity against LPS-induced mouse BV-2 cells assessed as cell viability at 0.5 to 10 uM incubated for 24 hrs by MTT assay; format: toxicity, cell-based; settings: bv-2, 24 h, dose 0.5-10 µM
BV-2 [11] = assay: Antineuroinflammatory activity in LPS-induced mouse BV-2 cells assessed as inhibition of NO release at 0.5 uM preincubated for 30 mins followed by LPS stimulation and measured after 24 hrs relative to control; format: functional; design: scale not given: the % may be the effect or the level left; settings: time 24.5 hrs
BV-2 [12] = assay: Antineuroinflammatory activity in LPS-induced mouse BV-2 cells assessed as inhibition of NO release at 10 uM preincubated for 30 mins followed by LPS stimulation and measured after 24 hrs relative to control; format: functional; design: scale not given: the % may be the effect or the level left; settings: time 24.5 hrs
BV-2 [13] = assay: Antineuroinflammatory activity in LPS-induced mouse BV-2 cells assessed as inhibition of TNF-alpha release at 0.5 uM preincubated for 30 mins followed by LPS stimulation and measured after 24 hrs relative to control; format: functional; design: scale not given: the % may be the effect or the level left; settings: time 24.5 hrs
BV-2 [14] = assay: Antineuroinflammatory activity in LPS-induced mouse BV-2 cells assessed as inhibition of TNF-alpha release at 2.5 uM preincubated for 30 mins followed by LPS stimulation and measured after 24 hrs relative to control; format: functional; design: scale not given: the % may be the effect or the level left; settings: time 24.5 hrs
BV-2 [15] = assay: Antineuroinflammatory activity in LPS-induced mouse BV-2 cells assessed as inhibition of TNF-alpha release at 10 uM preincubated for 30 mins followed by LPS stimulation and measured after 24 hrs relative to control; format: functional; design: scale not given: the % may be the effect or the level left; settings: time 24.5 hrs
BV-2 [16] = assay: Antineuroinflammatory activity in LPS-induced mouse BV-2 cells assessed as inhibition of IL-1 beta release at 10 uM preincubated for 30 mins followed by LPS stimulation and measured after 24 hrs relative to control; format: functional; design: scale not given: the % may be the effect or the level left; settings: time 24.5 hrs
BV-2 [17] = assay: Antineuroinflammatory activity in LPS-induced mouse BV-2 cells assessed as inhibition of TNF-alpha release preincubated for 30 mins followed by LPS stimulation and measured after 24 hrs; format: functional, cell-based; settings: dose 0.5-10 µM, time 24.5 hrs
BV-2 [18] = assay: Antineuroinflammatory activity in LPS-induced mouse BV-2 cells assessed as inhibition of IL-1 beta release preincubated for 30 mins followed by LPS stimulation and measured after 24 hrs; format: functional, cell-based; settings: dose 0.5-10 µM, time 24.5 hrs
[19] = Half life in Balb/C mouse plasma at 30 mg/kg, IG measured upto 8 hrs by LC-MS analysis; format: ADME, organism-based; settings: po
[20] = AUC (0 to t) in Balb/C mouse plasma at 30 mg/kg, IG measured upto 8 hrs by LC-MS analysis; format: ADME, organism-based; settings: po
[21] = Half life in Balb/C mouse brain at 30 mg/kg, IG measured upto 8 hrs by LC-MS analysis; format: ADME, organism-based; settings: po
[22] = Ratio of AUC (0 to t) in Balb/C mouse brain at 30 mg/kg, IG measured upto 8 hrs by LC-MS analysis; format: ADME, organism-based; settings: po
Mus musculus [23] = assay: Neuroprotective activity in Sodium nitrite induced cognition impairement in C57BL/6 mouse model assessed as decrease in MAD level administered daily as IG for 7 days; format: functional, organism-based; settings: dose 1.1-9.9 mg/kg, time 7.0 day
Mus musculus [24] = assay: Neuroprotective activity in Sodium nitrite induced cognition impairement in C57BL/6 mouse model assessed as increase in SOD activity at 9.9 mg/kg, IG administered daily for 7 days; format: functional; settings: time 7 day
Mus musculus [25] = assay: Neuroprotective activity in Sodium nitrite induced cognition impairement in C57BL/6 mouse model assessed as increase in SOD activity at 5.0 mg/kg, IG administered daily for 7 days; format: functional, organism-based; settings: time 7.0 day
Mus musculus [26] = assay: Neuroprotective activity in Sodium nitrite induced cognition impairement in C57BL/6 mouse model assessed as decrease in MAD activity at 5.0 mg/kg, IG administered daily for 7 days; format: functional, organism-based; settings: time 7.0 day
Mus musculus [27] = assay: Neuroprotective activity against Abeta42 induced cognition impairement in AD mouse model assessed as improvement in latency time at 1.1 to 9.9 mg/kg, IG administered daily for 7 days by passive avoidance test; format: functional, organism-based; settings: dose 1.1-9.9 mg/kg, time 7.0 day
[28] = Metal chelating activity assessed as compound-Fe2+ complex formation by measuring bathochromic shift at 301 to 335nm in the presence of FeSO4 by UV-Visible spectrophotometric analysis
[29] = Metal chelating activity assessed as compound-Zn2+ complex formation by measuring bathochromic shift at 301 to 345nm in the presence of ZnCl2 by UV-Visible spectrophotometric analysis
[30] = Metal chelating activity assessed as compound-Al3+ complex formation by measuring bathochromic shift at 301 to 330nm in the presence of AlCl3 by UV-Visible spectrophotometric analysis
[31] = Metal chelating activity assessed as compound-Cu2+ complex formation by measuring hyperchromic shift in the presence of CuCl2 by UV-Visible spectrophotometric analysis
[32] = Metal chelating activity assessed as compound-Fe2+ complex formation by measuring hyperchromic shift in the presence of FeSO4 by UV-Visible spectrophotometric analysis
[33] = Metal chelating activity assessed as compound-Zn2+ complex formation by measuring hyperchromic shift in the presence of ZnCl2 by UV-Visible spectrophotometric analysis
[34] = Metal chelating activity assessed as compound-Al3+ complex formation by measuring hyperchromic shift in the presence of AlCl3 by UV-Visible spectrophotometric analysis

Amyloid-beta precursor protein (Homo sapiens), sequence (P05067 whole entry): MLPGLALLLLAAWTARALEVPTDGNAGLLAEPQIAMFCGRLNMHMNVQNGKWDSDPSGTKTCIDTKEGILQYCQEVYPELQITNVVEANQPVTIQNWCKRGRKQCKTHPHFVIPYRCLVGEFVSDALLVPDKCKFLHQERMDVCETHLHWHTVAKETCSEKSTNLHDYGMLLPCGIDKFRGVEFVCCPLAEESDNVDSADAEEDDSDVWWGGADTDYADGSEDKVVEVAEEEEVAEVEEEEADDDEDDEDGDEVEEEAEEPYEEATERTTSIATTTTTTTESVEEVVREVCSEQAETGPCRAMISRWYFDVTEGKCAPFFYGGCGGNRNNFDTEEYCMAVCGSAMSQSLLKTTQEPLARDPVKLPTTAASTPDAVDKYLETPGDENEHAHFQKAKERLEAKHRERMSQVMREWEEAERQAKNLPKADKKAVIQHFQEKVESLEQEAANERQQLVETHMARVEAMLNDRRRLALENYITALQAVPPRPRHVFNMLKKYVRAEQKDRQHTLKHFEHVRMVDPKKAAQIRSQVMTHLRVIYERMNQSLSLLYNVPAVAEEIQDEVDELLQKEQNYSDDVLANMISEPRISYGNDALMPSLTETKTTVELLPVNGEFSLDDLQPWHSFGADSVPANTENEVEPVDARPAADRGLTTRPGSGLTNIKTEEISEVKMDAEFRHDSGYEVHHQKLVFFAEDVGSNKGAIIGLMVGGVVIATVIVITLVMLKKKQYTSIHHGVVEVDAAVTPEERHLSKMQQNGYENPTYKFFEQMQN

With `CCCCCC1OC(=O)c2c1cc(OC)c(O)c2O` (stereo not given) the Activity [1] was 2.2, the inhibition [2] was 90.2% and the Activity [3] was 42.5%. For the same compound, the Activity [4] was “Active”, the Activity (HT-22 [5]) was “Active” and the Activity (HT-22 [6]) was “Active”. For the same compound, the Activity (HT-22 [7]) was 89.2%, the Activity (HT-22 [8]) was 76.3% and the Activity (HT-22 [9]) was “Dose-Dependent Effect”. For the same compound, the Activity (PC-12) was 80.7%, the Activity (BV-2 [10]) was “Non-Toxic” and the Activity (BV-2 [11]) was 31.1%. It also gave an Activity (BV-2 [12]) of 77.3%, an Activity (BV-2 [13]) of 20% and an Activity (BV-2 [14]) of 40.1%. The Activity (BV-2 [15]) was 75.8%, the Activity (BV-2 [16]) was 62.9% and the Activity (BV-2 [17]) was “Dose-Dependent Effect”. The Activity (BV-2 [18]) was “Dose-Dependent Effect”, the half-life [19] was 51 min and the AUC(0-t) at 8 h [20] was 852 ng·h/mL. The half-life [21] was 58.2 min, the Kp at 8 h [22] was 0.8 and the Activity (Mus musculus [23]) was “Dose-Dependent Effect”. For the same compound, the Activity (Mus musculus [24]) was 193.1 U/mg, the Activity (Mus musculus [25]) was “inactive” and the Activity (Mus musculus [26]) was “inactive”. The Activity (Mus musculus [27]) was “Active”, the Activity [28] was “Active” and the Activity [29] was “Active”. For the same compound, the Activity [30] was “Active”, the Activity [31] was “Active” and the Activity [32] was “Active”. For the same compound, the Activity [33] was “Active” and the Activity [34] was “Active”.
